Experimental data: ChEMBL document CHEMBL1201862, “PubChem BioAssay data set” (2004)
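Interpolation was linear, between the two tested concentrations surrounding the appropriate level; five concentrations were tested over 48 hours in 96-well plates. GI50 = concentration required for 50% inhibition of growth.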 The source made the active and inactive calls. No stated cut-off is given here; in the data, active = GI50 up to about 1.1 µM and inactive = higher.

Tests used:
Test in all cases: growth of human tumour cells (NCI), 48 h
786-0 = test system: 786-0
A498 = test system: A498
A549 = test system: A549
ACHN = test system: ACHN
BT-549 = test system: BT-549
CAKI-1 = test system: CAKI-1
CCRF-CEM = test system: CCRF-CEM
COLO 205 = test system: COLO 205
DLD-1 = test system: DLD-1
DMS-114 = test system: DMS-114
DMS-273 = test system: DMS-273
DU-145 = test system: DU-145
EKVX = test system: EKVX
HCC 2998 = test system: HCC 2998
HCT-116 = test system: HCT-116
HCT-15 = test system: HCT-15
HL-60 = test system: HL-60
HOP-18 = test system: HOP-18
HOP-62 = test system: HOP-62
HOP-92 = test system: HOP-92
HT-29 = test system: HT-29
Hs-578T = test system: Hs-578T
IGROV-1 = test system: IGROV-1
K562 = test system: K562
KM-20L2 = test system: KM-20L2
KM12 = test system: KM12
LOX IMVI = test system: LOX IMVI
LXFL 529 = test system: LXFL 529
M14 = test system: M14
M19-MEL = test system: M19-MEL
MCF7 = test system: MCF7
MDA-MB-231 = test system: MDA-MB-231
MDA-MB-435 = test system: MDA-MB-435
MOLT-4 = test system: MOLT-4
Malme-3M = test system: Malme-3M
NCI-H226 = test system: NCI-H226
NCI-H23 = test system: NCI-H23
NCI-H460 = test system: NCI-H460
NCI-H522 = test system: NCI-H522
NCI/ADR-RES = test system: NCI/ADR-RES
OVCAR-3 = test system: OVCAR-3
OVCAR-4 = test system: OVCAR-4
OVCAR-5 = test system: OVCAR-5
OVCAR-8 = test system: OVCAR-8
PC-3 = test system: PC-3
RPMI-8226 = test system: RPMI-8226
RXF 393 = test system: RXF 393
SF-268 = test system: SF-268
SF-295 = test system: SF-295
SF-539 = test system: SF-539
SK-MEL-28 = test system: SK-MEL-28
SK-MEL-2 = test system: SK-MEL-2
SK-MEL-5 = test system: SK-MEL-5
SK-OV-3 = test system: SK-OV-3
SN12C = test system: SN12C
SNB-19 = test system: SNB-19
SNB-75 = test system: SNB-75
SR = test system: SR
SW-620 = test system: SW-620
T47D = test system: T47D
TK-10 = test system: TK-10
U-251 = test system: U-251
UACC-257 = test system: UACC-257
UACC-62 = test system: UACC-62
UO-31 = test system: UO-31
SNB-78 = test system: SNB-78

CC[N+]1(C)CCC(O)(c2ccccc2)C(C(=O)c2ccccc2)C1 (centres undefined)
GI50 (786-0): 5.89 µM (inactive)
GI50 (A498): 16.1 µM (inactive)
GI50 (A549): 16 µM (inactive)
GI50 (ACHN): 10.1 µM (inactive)
GI50 (BT-549): 9.02 µM (inactive)
GI50 (CAKI-1): 4.14 µM (inactive)
GI50 (CCRF-CEM): 2.04 µM (inactive)
GI50 (COLO 205): 9.38 µM (inactive)
GI50 (DLD-1): 7.93 µM (inactive)
GI50 (DMS-114): 20.2 µM (inactive)
GI50 (DMS-273): 21.4 µM (inactive)
GI50 (DU-145): 22.1 µM (inactive)
GI50 (EKVX): 21.1 µM (inactive)
GI50 (HCC 2998): 34 µM (inactive)
GI50 (HCT-116): 13.6 µM (inactive)
GI50 (HCT-15): 9.73 µM
GI50 (HL-60): 4.27 µM (inactive)
GI50 (HOP-18): 13.7 µM (inactive)
GI50 (HOP-62): 22 µM (inactive)
GI50 (HOP-92): 8.3 µM (inactive)
GI50 (HT-29): 12.5 µM (inactive)
GI50 (Hs-578T): 24 µM (inactive)
GI50 (IGROV-1): 19.8 µM (inactive)
GI50 (K562): 2.11 µM (inactive)
GI50 (KM-20L2): 19.5 µM (inactive)
GI50 (KM12): 19.2 µM (inactive)
GI50 (LOX IMVI): 15.4 µM (inactive)
GI50 (LXFL 529): 10 µM (inactive)
GI50 (M14): 9.71 µM (inactive)
GI50 (M19-MEL): 18.4 µM (inactive)
GI50 (MCF7): 2.73 µM (inactive)
GI50 (MDA-MB-231): 17.2 µM (inactive)
GI50 (MDA-MB-435): 17.9 µM (inactive)
GI50 (MOLT-4): 3.04 µM (inactive)
GI50 (Malme-3M): 16.7 µM (inactive)
GI50 (NCI-H226): 18.6 µM (inactive)
GI50 (NCI-H23): 20.8 µM (inactive)
GI50 (NCI-H460): 21.7 µM (inactive)
GI50 (NCI-H522): 1.75 µM (inactive)
GI50 (NCI/ADR-RES): 29.6 µM (inactive)
GI50 (OVCAR-3): 19.3 µM (inactive)
GI50 (OVCAR-4): 11.8 µM (inactive)
GI50 (OVCAR-5): 17.9 µM (inactive)
GI50 (OVCAR-8): 25.8 µM (inactive)
GI50 (PC-3): 17.9 µM (inactive)
GI50 (RPMI-8226): 2 µM (inactive)
GI50 (RXF 393): 12.4 µM (inactive)
GI50 (SF-268): 23.6 µM (inactive)
GI50 (SF-295): 19 µM (inactive)
GI50 (SF-539): 16.7 µM (inactive)
GI50 (SK-MEL-28): 15.2 µM (inactive)
GI50 (SK-MEL-2): 18.7 µM (inactive)
GI50 (SK-MEL-5): 18.6 µM (inactive)
GI50 (SK-OV-3): 17.3 µM (inactive)
GI50 (SN12C): 11.6 µM (inactive)
GI50 (SNB-19): 15.5 µM (inactive)
GI50 (SNB-75): 12.6 µM (inactive)
GI50 (SR): 5.43 µM (inactive)
GI50 (SW-620): 2.12 µM (inactive)
GI50 (T47D): 16.9 µM (inactive)
GI50 (TK-10): 15.7 µM (inactive)
GI50 (U-251): 20.6 µM (inactive)
GI50 (UACC-257): 17.5 µM (inactive)
GI50 (UACC-62): 19 µM (inactive)
GI50 (UO-31): 18.7 µM (inactive)

Cc1ccc(C)c(NC(=O)CC/C(=N\NC(=O)C(=O)NN)C(C)C(=O)c2ccc(O)cc2)c1 (centres undefined)
GI50 (786-0): > 100 µM (inactive)
GI50 (A498): > 100 µM (inactive)
GI50 (A549): > 100 µM (inactive)
GI50 (ACHN): > 100 µM (inactive)
GI50 (CAKI-1): > 100 µM (inactive)
GI50 (CCRF-CEM): > 100 µM (inactive)
GI50 (COLO 205): > 100 µM (inactive)
GI50 (DLD-1): > 100 µM (inactive)
GI50 (DMS-273): > 100 µM (inactive)
GI50 (EKVX): > 100 µM (inactive)
GI50 (HCC 2998): > 100 µM (inactive)
GI50 (HCT-116): > 100 µM (inactive)
GI50 (HCT-15): > 100 µM
GI50 (HOP-18): > 100 µM (inactive)
GI50 (HOP-62): > 100 µM (inactive)
GI50 (HOP-92): > 100 µM (inactive)
GI50 (HT-29): > 100 µM (inactive)
GI50 (IGROV-1): > 100 µM (inactive)
GI50 (K562): > 100 µM (inactive)
GI50 (KM-20L2): > 100 µM (inactive)
GI50 (KM12): > 100 µM (inactive)
GI50 (LOX IMVI): > 100 µM (inactive)
GI50 (LXFL 529): > 100 µM (inactive)
GI50 (M14): > 100 µM (inactive)
GI50 (M19-MEL): > 100 µM (inactive)
GI50 (MOLT-4): > 100 µM (inactive)
GI50 (Malme-3M): > 100 µM (inactive)
GI50 (NCI-H226): > 100 µM (inactive)
GI50 (NCI-H23): > 100 µM (inactive)
GI50 (NCI-H460): > 100 µM (inactive)
GI50 (NCI-H522): > 100 µM (inactive)
GI50 (OVCAR-3): > 100 µM (inactive)
GI50 (OVCAR-4): > 100 µM (inactive)
GI50 (OVCAR-5): > 100 µM (inactive)
GI50 (RPMI-8226): > 100 µM (inactive)
GI50 (RXF 393): > 100 µM (inactive)
GI50 (SF-268): > 100 µM (inactive)
GI50 (SF-295): > 100 µM (inactive)
GI50 (SF-539): > 100 µM (inactive)
GI50 (SK-MEL-28): > 100 µM (inactive)
GI50 (SK-MEL-2): > 100 µM (inactive)
GI50 (SK-MEL-5): > 100 µM (inactive)
GI50 (SK-OV-3): > 100 µM (inactive)
GI50 (SN12C): > 100 µM (inactive)
GI50 (SNB-19): > 100 µM (inactive)
GI50 (SNB-75): > 100 µM (inactive)
GI50 (SNB-78): > 100 µM (inactive)
GI50 (SR): > 100 µM (inactive)
GI50 (SW-620): > 100 µM (inactive)
GI50 (TK-10): > 100 µM (inactive)
GI50 (U-251): > 100 µM (inactive)
GI50 (UACC-257): > 100 µM (inactive)
GI50 (UACC-62): > 100 µM (inactive)
GI50 (UO-31): > 100 µM (inactive)
